Experimental data reported in article PMC10108347, “Heterobifunctional Ligase Recruiters Enable pan-Degradation of Inhibitor of Apoptosis Proteins” (Journal of Medicinal Chemistry, 2023).
Entries after “also recorded” stand apart in the source; their conditions may differ. Read-outs that look alike come from different tables or passages of the source.

How the values were obtained:
[1] = target: T1, plasma protein (HSA column) (Homo sapiens, UniProt P02768); assay: Plasma protein binding estimated by HPLC on a […] HSA column; assay type: in vitro ADME; settings: CHIRALPAK HSA column (50 × 3 mm, 5 μm), estimated by an HPLC-based method, read-out: PPB (plasma protein binding) (converted)
T1 construct: purchased
T1 sequence (P02768 25-609): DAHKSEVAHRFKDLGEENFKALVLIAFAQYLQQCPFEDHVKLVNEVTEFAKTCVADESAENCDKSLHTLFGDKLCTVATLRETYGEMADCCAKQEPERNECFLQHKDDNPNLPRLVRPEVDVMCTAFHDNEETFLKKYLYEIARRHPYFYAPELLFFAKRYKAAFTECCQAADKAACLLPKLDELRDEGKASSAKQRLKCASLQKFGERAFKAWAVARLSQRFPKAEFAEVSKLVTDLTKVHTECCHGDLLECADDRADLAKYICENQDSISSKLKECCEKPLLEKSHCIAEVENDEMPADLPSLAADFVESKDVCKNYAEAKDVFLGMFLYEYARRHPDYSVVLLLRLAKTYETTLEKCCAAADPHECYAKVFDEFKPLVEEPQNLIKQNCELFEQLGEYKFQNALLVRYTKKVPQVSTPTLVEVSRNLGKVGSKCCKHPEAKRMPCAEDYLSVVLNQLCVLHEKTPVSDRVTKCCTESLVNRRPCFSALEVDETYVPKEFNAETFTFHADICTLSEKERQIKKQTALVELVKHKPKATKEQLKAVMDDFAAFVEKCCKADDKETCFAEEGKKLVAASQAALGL
Description: Plasma protein binding (% PPB) was estimated by correlating the logarithmic retention times of the analytes on a […] HSA 50 × 3 mm, 5 μm column with the literature-known % PPB values (converted into log K values) of the following drugs: warfarin, ketoprofen, budesonide, nizatidine, indomethacin, acetylsalicylic acid, carbamazepine, piroxicam, nicardipine, and cimetidine (for details, see Valko et al.).[67] The samples were dissolved in MeCN/DMSO 9:1 to achieve a final concentration of 0.5 mg/mL. Mobile phase A was 50 mM ammonium acetate adjusted to pH 7.4 with ammonia solution, while mobile phase B was iPrOH. The flow rate was set to 1.0 mL/min, the UV detector was set to 254 nm, and the column temperature was kept at 30 °C. After injecting 2 μL of the sample, a linear gradient from 100% A to 30% iPrOH in 5.4 min was applied. From 5.4 to 18 min, 30% iPrOH was kept, followed by switching back to 100% A in 1.0 min and a re-equilibration time of 6 min. With the aid of the calibration line (R^2 = 0.96), the log K values of new substances were calculated and converted to their % PPB values.

[2] = Log D7.4 measurement by chromatographic (fast-gradient HPLC) method; settings: pH 7.4
Description: The system was calibrated by plotting the retention times of six different drugs (atenolol, metoprolol, labetalol, diltiazem, triphenylene, and permethrin) versus their literature-known log D7.4 in a calibration line (R^2 = 0.99). Subsequently, the mean retention times of the analytes were taken to calculate their log D7.4 values with the aid of the calibration line. At least two independent measurements of each analyte were performed.

[3] = target: XIAP (Homo sapiens, UniProt P98170); assay: Immunoblotting (western blot) quantification of XIAP levels in MM.1S cells; settings: 16 h; for remaining activity at 0.1 µM: MM1.S
XIAP, sequence (P98170 whole entry): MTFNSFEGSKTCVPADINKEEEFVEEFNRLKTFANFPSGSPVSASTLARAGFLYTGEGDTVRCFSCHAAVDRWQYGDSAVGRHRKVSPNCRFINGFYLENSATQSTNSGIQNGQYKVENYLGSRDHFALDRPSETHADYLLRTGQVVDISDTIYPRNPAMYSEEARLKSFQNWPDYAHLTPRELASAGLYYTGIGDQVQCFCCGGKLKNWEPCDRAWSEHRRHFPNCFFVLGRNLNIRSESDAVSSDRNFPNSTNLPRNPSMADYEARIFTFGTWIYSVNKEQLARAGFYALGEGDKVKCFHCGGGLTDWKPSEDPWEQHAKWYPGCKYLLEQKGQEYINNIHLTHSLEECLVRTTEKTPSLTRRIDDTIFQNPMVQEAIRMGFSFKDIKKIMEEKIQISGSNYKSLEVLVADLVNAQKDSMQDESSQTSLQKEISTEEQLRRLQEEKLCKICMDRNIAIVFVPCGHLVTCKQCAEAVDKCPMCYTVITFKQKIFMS

[4] = test system: IAPs (cIAP1, cIAP2, XIAP); assay: Immunoblotting of IAPs in MM.1S cells, overall degradation profile, time course and washout; assay type: cell-based; settings: 16 h, western blot, concentration (10 nM to 1 μM)
Description: Next, we examined the persistence of IAP degradation in MM.1S cells after a single exposure to 1 μM of 9 and subsequent removal of the compound. […] The reliance on CRL2^VHL was assessed with a neddylation inhibitor MLN4924, which blocks the activity of CRLs (Figure S13A).

[5] = target: cIAP1 (Homo sapiens, UniProt Q13490); assay: Immunoblotting (western blot) quantification of cIAP1 levels in MM.1S cells; settings: MM1.S, 16 h
cIAP1, sequence (Q13490 whole entry): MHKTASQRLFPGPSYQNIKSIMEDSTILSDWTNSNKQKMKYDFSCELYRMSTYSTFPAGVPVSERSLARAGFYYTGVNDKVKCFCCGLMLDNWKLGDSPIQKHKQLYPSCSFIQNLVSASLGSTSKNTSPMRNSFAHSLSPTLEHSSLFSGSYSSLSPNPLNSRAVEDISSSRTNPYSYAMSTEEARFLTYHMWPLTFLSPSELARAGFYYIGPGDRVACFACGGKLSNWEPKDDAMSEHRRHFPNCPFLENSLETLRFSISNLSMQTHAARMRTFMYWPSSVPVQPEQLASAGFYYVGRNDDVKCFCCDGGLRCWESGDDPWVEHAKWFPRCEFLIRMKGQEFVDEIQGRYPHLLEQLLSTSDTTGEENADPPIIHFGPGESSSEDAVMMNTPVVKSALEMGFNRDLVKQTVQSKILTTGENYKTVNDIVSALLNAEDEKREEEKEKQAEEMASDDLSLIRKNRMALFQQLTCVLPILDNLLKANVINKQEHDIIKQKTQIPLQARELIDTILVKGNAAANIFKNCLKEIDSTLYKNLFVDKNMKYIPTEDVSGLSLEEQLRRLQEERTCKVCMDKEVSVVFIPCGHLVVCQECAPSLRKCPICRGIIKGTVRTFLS

[6] = target: cIAP2 (Homo sapiens, UniProt Q13489); assay: Immunoblotting (western blot) quantification of cIAP2 levels in MM.1S cells; settings: MM1.S, 16 h
cIAP2, sequence (Q13489 whole entry): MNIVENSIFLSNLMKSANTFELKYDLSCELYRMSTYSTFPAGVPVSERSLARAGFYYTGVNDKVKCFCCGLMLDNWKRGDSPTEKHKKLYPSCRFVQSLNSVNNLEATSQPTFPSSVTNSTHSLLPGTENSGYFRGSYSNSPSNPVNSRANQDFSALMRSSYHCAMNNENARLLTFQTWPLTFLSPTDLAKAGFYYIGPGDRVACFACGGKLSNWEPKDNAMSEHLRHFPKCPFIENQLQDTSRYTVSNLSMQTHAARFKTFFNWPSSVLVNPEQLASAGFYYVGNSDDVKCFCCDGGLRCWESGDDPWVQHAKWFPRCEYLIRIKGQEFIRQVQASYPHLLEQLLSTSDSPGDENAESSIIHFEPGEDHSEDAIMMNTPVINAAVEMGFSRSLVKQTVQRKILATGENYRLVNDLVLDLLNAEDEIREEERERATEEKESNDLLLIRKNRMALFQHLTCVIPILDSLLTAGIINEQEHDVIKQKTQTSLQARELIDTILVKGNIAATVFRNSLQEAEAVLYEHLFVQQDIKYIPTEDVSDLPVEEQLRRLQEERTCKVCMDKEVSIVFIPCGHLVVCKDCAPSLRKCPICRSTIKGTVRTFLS
Description: To evaluate the capability of our panel of hetero-PROTACs for E3 ligase degradation, VHL19, VHL30, CRBN, cIAP1, cIAP2, and XIAP levels were quantified by western blot analyses. […] SDS-PAGE was performed, and proteins were then transferred onto PVDF membranes. Blotted membranes were blocked with 5% milk in Tris-buffered saline/Tween20 (TBST). Primary antibodies were diluted in 5% BSA in TBST, and incubations were performed overnight at 4 °C. Secondary HRP-conjugated antibodies diluted in 5% milk were incubated for 1 h at room temperature. Detection of proteins on PVDF was carried out using the WesternBright ECL HRP substrate or the WesternBright Sirius HRP substrate (Advansta, San Jose, USA) and imaged with LAS 4000× (Fujifilm). Membranes were subjected to 10 min incubation with Restore Western Blot Stripping Buffer (Thermo Fisher Scientific, Waltham, USA), followed by TBST washes. After brief re-activation with methanol, the membranes were blocked, and further probing of proteins was carried out.
Quantification of blots was performed using ImageJ software (National Institutes of Health).

[7] = target: VHL30 (Homo sapiens, UniProt P40337); assay: Immunoblotting (western blot) quantification of VHL30 levels in MM.1S cells; settings: MM1.S, 16 h
VHL30, sequence (P40337 whole entry): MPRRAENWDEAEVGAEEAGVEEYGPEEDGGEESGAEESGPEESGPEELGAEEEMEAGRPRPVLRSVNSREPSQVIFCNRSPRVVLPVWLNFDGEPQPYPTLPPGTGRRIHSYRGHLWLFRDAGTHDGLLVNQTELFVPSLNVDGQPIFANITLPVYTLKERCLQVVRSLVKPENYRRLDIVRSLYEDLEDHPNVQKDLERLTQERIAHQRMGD

[8] = read-out: %remaining protein XIAP
[9] = read-out: %remaining protein cIAP1
[10] = read-out: %remaining protein cIAP2
[11] = read-out: %remaining protein VHL30

| XIAP degradation (in words) ([3]; MM.1S cells, western blot, 0.1 or 1 μM) | remaining activity at 0.1 µM ([3]; read-out: %remaining protein XIAP, MM.1S cells, 16 h treatment at 0.1 μM, normalized to loading control and DMSO) [%] | remaining activity at 0.1 µM ([5]; read-out: %remaining protein cIAP1, MM.1S cells, 16 h treatment at 0.1 μM, normalized to loading control and DMSO) [%] | remaining activity at 0.1 µM ([6]; read-out: %remaining protein cIAP2, MM.1S cells, 16 h treatment at 0.1 μM, normalized to loading control and DMSO) [%] | remaining activity at 0.1 µM ([7]; read-out: %remaining protein VHL30, MM.1S cells, 16 h treatment at 0.1 μM, normalized to loading control and DMSO) [%] | Compound | fraction unbound at 0.5 mg/mL [1] | chromatographic logD [2] | IAP degradation profile (in words) [4] | remaining activity at 0.1 µM [3, 8] [%] | remaining activity at 0.1 µM [5, 9] [%] | remaining activity at 0.1 µM [6, 10] [%] | remaining activity at 0.1 µM [7, 11] [%] |
| --- | --- | --- | --- | --- | --- | --- | --- | --- | --- | --- | --- | --- |
| failed to degrade XIAP | – | – | – | – | CN[C@@H](C)C(=O)N[C@H](C(=O)N1CCC[C@H]1c1nc(C(=O)c2ccc(F)cc2)cs1)C1CCCCC1 [LCL161, reference compound] | 0.12 | 3.3 | – | – | – | – | – |
| – | 87 | 73 | 88 | > 99 | Cc1ncsc1-c1ccc([C@H](C)NC(=O)[C@@H]2C[C@@H](O)CN2C(=O)[C@@H](NC(=O)CCCCOc2cccc(O[C@H]3C[C@@H](C(=O)N[C@@H]4CCCc5ccccc54)N(C(=O)[C@@H](NC(=O)[C@H](C)N(C)C(=O)OC(C)(C)C)C4CCCCC4)C3)c2)C(C)(C)C)cc1 [PROTAC 10d, tert-Butyl ((S)-1-(((S)-1-Cyclohexyl-2-((2S,4S)-4-(3-((5-(((S)-1-((2S,4R)-4-hydroxy-2-(((S)-1-(4-(4-methylthiazol-5-yl)phenyl)ethyl)carbamoyl)pyrrolidin-1-yl)-3,3-dimethyl-1-oxobutan-2-yl)amino)-5-oxopentyl)oxy)phenoxy)-2-(((R)-1,2,3,4-tetrahydronaphthalen-1-yl)carbamoyl)pyrrolidin-1-yl)-2-oxoethyl)amino)-1-oxopropan-2-yl)(methyl)carbamate] | – | – | inactivated PROTACs | – | – | – | – |
| – | – | – | – | – | CN[C@@H](C)C(=O)N[C@H](C(=O)N1C[C@@H](Oc2cccc(OCCCCCOc3cc(-c4scnc4C)ccc3CNC(=O)[C@@H]3C[C@@H](O)CN3C(=O)[C@H](C(C)C)N3Cc4ccccc4C3=O)c2)C[C@H]1C(=O)N[C@@H]1CCCc2ccccc21)C1CCCCC1 [PROTAC 12, (2S,4S)-1-((S)-2-Cyclohexyl-2-((S)-2-(methylamino)propanamido)acetyl)-4-(3-((5-(2-(((2S,4R)-4-hydroxy-1-((S)-3-methyl-2-(1-oxoisoindolin-2-yl)butanoyl)pyrrolidine-2-carboxamido)methyl)-5-(4-methylthiazol-5-yl)phenoxy)pentyl)oxy)phenoxy)-N-((R)-1,2,3,4-tetrahydronaphthalen-1-yl)pyrrolidine-2-carboxamide] | 0.04 | 4 | – | 5 | 4 | 29 | 55 |
| – | – | – | – | – | CN[C@@H](C)C(=O)N[C@H](C(=O)N1C[C@@H](Oc2cccc(OCCCCCCCCOc3cc(-c4scnc4C)ccc3CNC(=O)[C@@H]3C[C@@H](O)CN3C(=O)[C@H](C(C)C)N3Cc4ccccc4C3=O)c2)C[C@H]1C(=O)N[C@@H]1CCCc2ccccc21)C1CCCCC1 [PROTAC 13, (2S,4S)-1-((S)-2-Cyclohexyl-2-((S)-2-(methylamino)propanamido)acetyl)-4-(3-((8-(2-(((2S,4R)-4-hydroxy-1-((S)-3-methyl-2-(1-oxoisoindolin-2-yl)butanoyl)pyrrolidine-2-carboxamido)methyl)-5-(4-methylthiazol-5-yl)phenoxy)octyl)oxy)phenoxy)-N-((R)-1,2,3,4-tetrahydronaphthalen-1-yl)pyrrolidine-2-carboxamide] | 0.03 | 4.8 | – | 5 | 3 | 15 | 53 |
| – | – | – | – | – | CN[C@@H](C)C(=O)N[C@H](C(=O)N1C[C@@H](Oc2cccc(OCCCCOCCCCOc3cc(-c4scnc4C)ccc3CNC(=O)[C@@H]3C[C@@H](O)CN3C(=O)[C@H](C(C)C)N3Cc4ccccc4C3=O)c2)C[C@H]1C(=O)N[C@@H]1CCCc2ccccc21)C1CCCCC1 [PROTAC 14, (2S,4S)-1-((S)-2-Cyclohexyl-2-((S)-2-(methylamino)propanamido)acetyl)-4-(3-(4-(4-(2-(((2S,4R)-4-hydroxy-1-((S)-3-methyl-2-(1-oxoisoindolin-2-yl)butanoyl)pyrrolidine-2-carboxamido)methyl)-5-(4-methylthiazol-5-yl)phenoxy)butoxy)butoxy)phenoxy)-N-((R)-1,2,3,4-tetrahydronaphthalen-1-yl)pyrrolidine-2-carboxamide] | 0.04 | 4.2 | – | 3 | 2 | 15 | 39 |
| – | – | – | – | – | CN[C@@H](C)C(=O)N[C@H](C(=O)N1C[C@@H](Oc2cccc(OCCOCCOCCOc3cc(-c4scnc4C)ccc3CNC(=O)[C@@H]3C[C@@H](O)CN3C(=O)[C@H](C(C)C)N3Cc4ccccc4C3=O)c2)C[C@H]1C(=O)N[C@@H]1CCCc2ccccc21)C1CCCCC1 [PROTAC 15, (2S,4S)-1-((S)-2-Cyclohexyl-2-((S)-2-(methylamino)propanamido)acetyl)-4-(3-(2-(2-(2-(2-(((2S,4R)-4-hydroxy-1-((S)-3-methyl-2-(1-oxoisoindolin-2-yl)butanoyl)pyrrolidine-2-carboxamido)methyl)-5-(4-methylthiazol-5-yl)phenoxy)ethoxy)ethoxy)ethoxy)phenoxy)-N-((R)-1,2,3,4-tetrahydronaphthalen-1-yl)pyrrolidine-2-carboxamide] | 0.05 | 3.4 | – | 3 | 3 | 32 | 51 |
| – | – | – | – | – | CN[C@@H](C)C(=O)N[C@H](C(=O)N1C[C@@H](Oc2cccc(OCCOCCOCCOCCOc3cc(-c4scnc4C)ccc3CNC(=O)[C@@H]3C[C@@H](O)CN3C(=O)[C@H](C(C)C)N3Cc4ccccc4C3=O)c2)C[C@H]1C(=O)N[C@@H]1CCCc2ccccc21)C1CCCCC1 [PROTAC 16, (2S,4S)-1-((S)-2-Cyclohexyl-2-((S)-2-(methylamino)propanamido)acetyl)-4-(3-(2-(2-(2-(2-(2-(((2S,4R)-4-hydroxy-1-((S)-3-methyl-2-(1-oxoisoindolin-2-yl)butanoyl)pyrrolidine-2-carboxamido)methyl)-5-(4-methylthiazol-5-yl)phenoxy)ethoxy)ethoxy)ethoxy)ethoxy)phenoxy)-N-((R)-1,2,3,4-tetrahydronaphthalen-1-yl)pyrrolidine-2-carboxamide] | 0.05 | 3.3 | – | 2 | 3 | 31 | 41 |
| – | – | – | – | – | CN[C@@H](C)C(=O)N[C@H](C(=O)N1C[C@@H](Oc2cccc(OCCCCCCOCCCCCCOCCCCCCOc3cc(-c4scnc4C)ccc3CNC(=O)[C@@H]3C[C@@H](O)CN3C(=O)[C@H](C(C)C)N3Cc4ccccc4C3=O)c2)C[C@H]1C(=O)N[C@@H]1CCCc2ccccc21)C1CCCCC1 [PROTAC 19, (2S,4S)-1-((S)-2-Cyclohexyl-2-((S)-2-(methylamino)propanamido)acetyl)-4-(3-((6-((6-((6-(2-(((2S,4R)-4-hydroxy-1-((S)-3-methyl-2-(1-oxoisoindolin-2-yl)butanoyl)pyrrolidine-2-carboxamido)methyl)-5-(4-methylthiazol-5-yl)phenoxy)hexyl)oxy)hexyl)oxy)hexyl)oxy)phenoxy)-N-((R)-1,2,3,4-tetrahydronaphthalen-1-yl)pyrrolidine-2-carboxamide] | – | 6.3 | dual cIAP1/XIAP degradation at 0.1 μM concentration; also recorded: pan-IAP degradation at 1 μM; also recorded: no degradation at 10 nM | 34 | 27 | 84 | 95 |
